# Assay results as given in patent publication US9018224B2, “Substituted cyclopropyl compounds useful as GPR119 agonists” (Merck Sharp & Dohme Corp., priority 2011, dated 2015).
# Target: T1, human GPR119 (Homo sapiens, UniProt Q8TDV5)
# T1 sequence (Q8TDV5 1-308 limits assumed): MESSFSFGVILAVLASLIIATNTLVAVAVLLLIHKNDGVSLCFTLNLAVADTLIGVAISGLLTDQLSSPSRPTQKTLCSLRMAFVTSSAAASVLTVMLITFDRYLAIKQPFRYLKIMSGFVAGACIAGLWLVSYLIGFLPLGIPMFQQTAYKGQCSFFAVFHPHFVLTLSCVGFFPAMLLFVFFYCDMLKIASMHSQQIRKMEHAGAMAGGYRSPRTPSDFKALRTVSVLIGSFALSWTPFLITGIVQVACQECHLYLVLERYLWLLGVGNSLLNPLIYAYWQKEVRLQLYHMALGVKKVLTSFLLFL
# Test: Measurement of GPR119 signaling by cAMP (LANCE cAMP kit or HTRF) in HEK293 cells transfected with human GPR119
# Format: cell-based
# Settings: agonist cAMP response in HEK293 cells stably transfected with human GPR119; patent does not say which of the two cAMP formats (LANCE or HTRF)
# Procedure, shortened: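 LANCE TR-FRET cAMP readout; detection with Eu-SA/biotin-cAMP tracer for 3 h, signal converted to cAMP via standard curve, duplicates, 4-parameter fit vs DMSO basal and internal agonist maximum.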
row,Compound,EC50 [nM]
1,CC1c2nc(C(F)(F)F)nn2CCN1C(=O)Cc1ccc(OCC[C@@H]2C[C@@H]2C2CCN(c3ncc(Cl)cn3)CC2)cc1F (stereo partly drawn) [Example 177],0.6
2,CC(C)(C)NC(=O)c1nnc2n1CCN(C(=O)Cc1ccc(OCC[C@@H]3C[C@@H]3C3CCN(c4ncc(Cl)cn4)CC3)cc1F)C2 [Example 178],2.8
3,O=C(Cc1ccc(OCC[C@@H]2C[C@@H]2C2CCN(c3ncc(Cl)cn3)CC2)cc1F)N1CCn2c(Cc3ccccc3)cnc2C1 [Example 181],6.1
4,O=C(Cc1ccc(OCC[C@@H]2C[C@@H]2C2CCN(c3ncc(Cl)cn3)CC2)cc1F)N1CCc2oncc2C1 [Example 183],0.93
5,O=C(Cc1ccc(OCC[C@@H]2C[C@@H]2C2CCN(c3ncc(Cl)cn3)CC2)cc1F)N1CCc2sccc2C1 [Example 185],2.2
6,O=C(Cc1ccc(OCC[C@@H]2C[C@@H]2C2CCN(c3ncc(Cl)cn3)CC2)cc1F)N1CCc2sc(C(F)(F)F)nc2C1 [Example 186],1.7
7,Cn1nc(C(F)(F)F)c2c1CCN(C(=O)Cc1ccc(OCC[C@@H]3C[C@@H]3C3CCN(c4ncc(Cl)cn4)CC3)cc1F)C2 [Example 187],2
8,Cn1nc(C(F)(F)F)c2c1CN(C(=O)Cc1ccc(OCC[C@@H]3C[C@@H]3C3CCN(c4ncc(Cl)cn4)CC3)cc1F)CC2 [Example 189],6
9,Cc1ccc2n1CCN(C(=O)Cc1ccc(OCC[C@@H]3C[C@@H]3C3CCN(c4ncc(Cl)cn4)CC3)cc1F)C2C (stereo partly drawn) [Example 191],3.4
10,O=C(Cc1ccc(OCC[C@@H]2C[C@@H]2C2CCN(c3ncc(Cl)cn3)CC2)cc1F)N1CCc2[nH]c(C(F)(F)F)nc2C1 [Example 192],2.1
11,O=C(Cc1ccc(OCC[C@@H]2C[C@@H]2C2CCN(c3ncc(Cl)cn3)CC2)cc1F)N1CCCc2cnccc21 [Example 194],3.6
12,O=C(Cc1ccc(OCC[C@@H]2C[C@@H]2C2CCN(c3ncc(Cl)cn3)CC2)cc1F)N1CCC(C(F)(F)F)n2nccc21 (stereo partly drawn) [Example 195],2.9
13,O=C(Cc1ccc(OCC[C@@H]2C[C@@H]2C2CCN(c3ncc(Cl)cn3)CC2)cc1F)N1Cc2nc(-c3ccccc3)[nH]c2C1 [Example 197],6.8
14,O=C(Cc1ccc(OCC[C@@H]2C[C@@H]2C2CCN(c3ncc(Cl)cn3)CC2)cc1F)N1CCc2ncccc2C1 [Example 198],1.3
15,CCOCc1cnc(N2CCC([C@H]3C[C@H]3CCOc3ccc(CC(=O)N4CCC4)c(F)c3)CC2)nc1 [Example 200],0.79
16,CCOCc1cnc(N2CCC([C@H]3C[C@H]3CCOc3ccc(CC(=O)N4CC(F)C4)c(F)c3)CC2)nc1 [Example 201],0.49
17,CCOCc1cnc(N2CCC([C@H]3C[C@H]3CCOc3ccc(CC(=O)N4CC(OC)C4)c(F)c3)CC2)nc1 [Example 203],1.2

row,Compound,EC50 [nM]
1,CCOCc1cnc(N2CCC([C@H]3C[C@H]3CCOc3ccc(CC(=O)N(C)C)c(F)c3)CC2)nc1 [Example 204],1.2
2,"CC(C)(O)c1cnc(N2CCC([C@H]3C[C@H]3CCOc3ccc(CC(=O)N4CCC4)c(F)c3)CC2)nc1 [Example 205, 1-(azetidin-1-yl)-2-(2-fluoro-4-{2-[(1S,2R)-2-{1-[5-(2-hydroxypropan-2-yl]pyrimidin-2-yl]piperidin-4-yl}cyclopropyl]ethoxy}phenyl)ethanone]",7.5
3,"CCc1cnc(N2CCC([C@H]3C[C@H]3CCOc3ccc(CC(=O)N4CCC4)c(F)c3)CC2)nc1 [Example 207, 1-(azetidin-1-yl)-2-[4-(2-{(1S,2R)-2-[1-(5-ethylpyrimidin-2-yl)piperidin-4-yl]cyclopropyl}ethoxy)-2-fluorophenyl]ethanone]",0.4
4,CCc1cnc(N2CCC([C@H]3C[C@H]3CCOc3ccc(CC(=O)NC4CC4)c(F)c3)CC2)nc1 [Example 208],1.9
5,"COc1cnc(N2CCC([C@H]3C[C@H]3CCOc3cc(F)c(CC(=O)N4CC(O)C4)c(F)c3)CC2)nc1 [Example 210, 2-[2,6-difluoro-4-(2-{(1S,2R)-2-[1-(5-methoxypyrimidin-2-yl)piperidin-4-yl]cyclopropyl}ethoxy)phenyl]-1-(3-hydroxyazetidin-1-yl)ethanone]",0.59
6,COc1cnc(N2CCC([C@H]3C[C@H]3CCOc3cc(F)c(CC(=O)N4CC(C)(O)C4)c(F)c3)CC2)nc1 [Example 212],0.88
7,COc1cnc(N2CCC([C@H]3C[C@H]3CCOc3cc(F)c(CC(=O)N4CCC4)c(F)c3)CC2)nc1 [Example 214],0.2
8,COc1cnc(N2CCC([C@H]3C[C@H]3CCOc3cc(F)c(CC(=O)N4CCOCC4)c(F)c3)CC2)nc1 [Example 215],0.29
9,COc1cnc(N2CCC([C@H]3C[C@H]3CCOc3cc(F)c(CC(=O)N4CC(F)C4)c(F)c3)CC2)nc1 [Example 216],0.09
10,"COCc1cnc(N2CCC([C@H]3C[C@H]3CCOc3cc(F)c(CC(=O)N4CC(O)C4)c(F)c3)CC2)nc1 [Example 218, 1-({2,6-difluoro-4-[2-((1S,2R)-2-{1-[5-(methoxymethyl)pyrimidin-2-yl]piperidin-4-yl}cyclopropyl)ethoxy]phenyl}acetyl)azetidin-3-ol]",1.6
11,"COCc1cnc(N2CCC([C@H]3C[C@H]3CCOc3cc(F)c(CC(=O)N4CCC4)c(F)c3)CC2)nc1 [Example 219, 1-(azetidin-1yl)-2-(2,6-difluoro-4-{2[(1S,2R)-2-{1-[5-(methoxylmethyl)pyrimidin-2yl]piperidin-4-yl}cyclopropyl]ethoxyl}phenyl)ethanone]",0.18
12,COCc1cnc(N2CCC([C@H]3C[C@H]3CCOc3cc(F)c(CC(=O)N4CC(F)C4)c(F)c3)CC2)nc1 [Example 220],0.14
13,COCc1cnc(N2CCC([C@H]3C[C@H]3CCOc3cc(F)c(CC(=O)N4CC(C)(O)C4)c(F)c3)CC2)nc1 [Example 221],2.1
14,COCc1cnc(N2CCC([C@H]3C[C@H]3CCOc3cc(F)c(CC(=O)N4CC(C(C)(C)O)C4)c(F)c3)CC2)nc1 [Example 222],2
15,COCc1cnc(N2CCC([C@H]3C[C@H]3CCOc3cc(F)c(CC(=O)N4CCOCC4)c(F)c3)CC2)nc1 [Example 223],0.38
16,COCc1cnc(N2CCC([C@H]3C[C@H]3CCOc3cc(F)c(CC(=O)N(C)C)c(F)c3)CC2)nc1 [Example 224],0.4

# Continued by falling EC50, values first:
row,EC50 [nM],Compound
1,6.4,O=C(Cc1ccc(OCC[C@@H]2C[C@@H]2C2CCN(c3ncc(Cl)cn3)CC2)cc1F)N1CCc2sc(C3CC3)nc2C1 [Example 190]
2,5.4,O=C(Cc1ccc(OCC[C@@H]2C[C@@H]2C2CCN(c3ncc(Cl)cn3)CC2)cc1F)N1CCCc2[nH]nc(C3CC3)c21 [Example 196]
3,2.4,O=C(Cc1ccc(OCC[C@@H]2C[C@@H]2C2CCN(c3ncc(Cl)cn3)CC2)cc1F)N1CCc2cn[nH]c2C1 [Example 182]
4,1.9,"CCOCc1cnc(N2CCC([C@H]3C[C@H]3CCOc3ccc(CC(=O)N4CC(O)C4)c(F)c3)CC2)nc1 [Example 199, 2-(4-{2-[(1S,2R)-2-{1-[5-(ethoxymethyl)pyrimidin-2-yl]piperidin-4-yl}cyclopropyl]ethoxy}-2-fluorophenyl)-1-(3-hydroxyazetidin-1-yl)ethanone]"
5,1.7,O=C(Cc1ccc(OCC[C@@H]2C[C@@H]2C2CCN(c3ncc(Cl)cn3)CC2)cc1F)N1CCc2nc(C3CC3)sc2C1 [Example 184]
6,1.6,"COCc1cnc(N2CCC([C@H]3C[C@H]3CCOc3cc(F)c(CC(=O)N(C)C)cc3F)CC2)nc1 [Example 209, 2-{2,5-difluoro-4-[2-((1S,2R)-2-{1-[5-(methoxymethyl)pyrimidin-2-yl]piperidin-4-yl}cyclopropyl)ethoxy]phenyl}-N, N-dimethylacetamide]"
7,1.1,CC1(C)CN(C(=O)Cc2ccc(OCC[C@@H]3C[C@@H]3C3CCN(c4ncc(Cl)cn4)CC3)cc2F)Cc2nnc(C(F)(F)F)n21 [Example 179]
8,1.1,CC1c2nnc(C(F)(F)F)n2C(C)CN1C(=O)Cc1ccc(OCC[C@@H]2C[C@@H]2C2CCN(c3ncc(Cl)cn3)CC2)cc1F (stereo partly drawn) [Example 193]
9,0.82,CC1c2ncc(C(F)(F)F)n2CCN1C(=O)Cc1ccc(OCC[C@@H]2C[C@@H]2C2CCN(c3ncc(Cl)cn3)CC2)cc1F (stereo partly drawn) [Example 180]
10,0.71,CC(C)(O)c1cnc(N2CCC([C@H]3C[C@H]3CCOc3cc(F)c(CC(=O)N4CCC4)c(F)c3)CC2)nc1 [Example 206]
11,0.55,CC1c2nc(C(F)(F)F)cn2CCN1C(=O)Cc1ccc(OCC[C@@H]2C[C@@H]2C2CCN(c3ncc(Cl)cn3)CC2)cc1F (stereo partly drawn) [Example 188]
12,0.3,CCOCc1cnc(N2CCC([C@H]3C[C@H]3CCOc3ccc(CC(=O)N4CC(F)(F)C4)c(F)c3)CC2)nc1 [Example 202]
13,0.23,COc1cnc(N2CCC([C@H]3C[C@H]3CCOc3cc(F)c(CC(=O)N(C)C)c(F)c3)CC2)nc1 [Example 213]
14,0.11,COc1cnc(N2CCC([C@H]3C[C@H]3CCOc3cc(F)c(CC(=O)N4CC(OC)C4)c(F)c3)CC2)nc1 [Example 211]
15,0.07,COc1cnc(N2CCC([C@H]3C[C@H]3CCOc3cc(F)c(CC(=O)N4CC(F)(F)C4)c(F)c3)CC2)nc1 [Example 217]
